# According to patent US10202376B2, “Heterocyclic compound” (Takeda Pharmaceutical Company Limited, priority 2014, dated 2019):
# Biological target: T1, Human GRIN1 and human GRIN2B expressing HEK293 cells (Homo sapiens, UniProt Q13224)
# T1 construct: host or cells: HEK293
# Assay: NR2B Ca2+ flux assay
# Format: cell-based
# Conditions: 10 μM test compound, glutamic acid/glycine stimulated Fluo-4 fluorescence, FLIPR, read-out: inhibitory rate (@10 μM)
# Method: Experimental Example 1 NR2B Ca^2+ Flux Assay
# Human GRIN1 and human GRIN2B expressing HEK293 cells were purchased from ChanTest. The cells were cultured in a DMEM/F-12 (COSMO BIO, 10-092-CM) medium added with 10% FBS (fetal bovine serum, AusGene), 100 units/mL penicillin, 100 μg/mL streptomycin, 500 μg/mL neomycin, 100 μg/mL Zeocin, 5 μg/mL Blasticidin at 37° C., 5% CO2. The cells were detached from flask with trypsin the day before the assay, suspended in a seeding medium (DMEM (Invitrogen, 31053) added with 10% FBS, 100 units/mL penicillin, 100 μg/mL streptomycin) at 8×10^5 cells/mL, seeded by 25 μL per well in a 384-well plate (Falcon, 356663) at 20000 cells/well, and cultured overnight in an incubator. On the day of the assay, tetracycline (Wako Pure Chemical Industries, Ltd., 209-16561) was diluted with the seeding medium at 2 μg/mL, added at […] to the plate seeded with the cells, and cultured for 2 hr in an incubator. Thereafter, the medium was removed, and the cells were washed with 50 μL/well assay buffer (137 mM NaCl, 4 mM KCl, 1.8 mM CaCl2, 10 mM HEPES (pH 7.2), 10 mM Glucose, 0.1% BSA). Then, a loading buffer (assay buffer added with 2.5 uM Fluo-4AM, 2 mM Amaranth, 1 mM Tartrazine) was added at 25 μL/well, and loading was performed in the incubator for 30 min, and at room temperature for 15 min. A test compound (25 μL) was added, and the cells were stood for 15 min at room temperature. Using FLIPR (Molecular Devices), 25 μL of an assay buffer containing […], 30 μM glycine was added, and the fluorescence signal was measured every 3 seconds for 5 min. The inhibitory activity was calculated as a relative activity value that inhibits 100% of the cumulative value of the fluorescence value of a well added with a buffer free of glutamic acid, glycine, relative to the cumulative value of the fluorescence value of each well.
# T1 sequence (Q13224 27-1484, other chains not shown): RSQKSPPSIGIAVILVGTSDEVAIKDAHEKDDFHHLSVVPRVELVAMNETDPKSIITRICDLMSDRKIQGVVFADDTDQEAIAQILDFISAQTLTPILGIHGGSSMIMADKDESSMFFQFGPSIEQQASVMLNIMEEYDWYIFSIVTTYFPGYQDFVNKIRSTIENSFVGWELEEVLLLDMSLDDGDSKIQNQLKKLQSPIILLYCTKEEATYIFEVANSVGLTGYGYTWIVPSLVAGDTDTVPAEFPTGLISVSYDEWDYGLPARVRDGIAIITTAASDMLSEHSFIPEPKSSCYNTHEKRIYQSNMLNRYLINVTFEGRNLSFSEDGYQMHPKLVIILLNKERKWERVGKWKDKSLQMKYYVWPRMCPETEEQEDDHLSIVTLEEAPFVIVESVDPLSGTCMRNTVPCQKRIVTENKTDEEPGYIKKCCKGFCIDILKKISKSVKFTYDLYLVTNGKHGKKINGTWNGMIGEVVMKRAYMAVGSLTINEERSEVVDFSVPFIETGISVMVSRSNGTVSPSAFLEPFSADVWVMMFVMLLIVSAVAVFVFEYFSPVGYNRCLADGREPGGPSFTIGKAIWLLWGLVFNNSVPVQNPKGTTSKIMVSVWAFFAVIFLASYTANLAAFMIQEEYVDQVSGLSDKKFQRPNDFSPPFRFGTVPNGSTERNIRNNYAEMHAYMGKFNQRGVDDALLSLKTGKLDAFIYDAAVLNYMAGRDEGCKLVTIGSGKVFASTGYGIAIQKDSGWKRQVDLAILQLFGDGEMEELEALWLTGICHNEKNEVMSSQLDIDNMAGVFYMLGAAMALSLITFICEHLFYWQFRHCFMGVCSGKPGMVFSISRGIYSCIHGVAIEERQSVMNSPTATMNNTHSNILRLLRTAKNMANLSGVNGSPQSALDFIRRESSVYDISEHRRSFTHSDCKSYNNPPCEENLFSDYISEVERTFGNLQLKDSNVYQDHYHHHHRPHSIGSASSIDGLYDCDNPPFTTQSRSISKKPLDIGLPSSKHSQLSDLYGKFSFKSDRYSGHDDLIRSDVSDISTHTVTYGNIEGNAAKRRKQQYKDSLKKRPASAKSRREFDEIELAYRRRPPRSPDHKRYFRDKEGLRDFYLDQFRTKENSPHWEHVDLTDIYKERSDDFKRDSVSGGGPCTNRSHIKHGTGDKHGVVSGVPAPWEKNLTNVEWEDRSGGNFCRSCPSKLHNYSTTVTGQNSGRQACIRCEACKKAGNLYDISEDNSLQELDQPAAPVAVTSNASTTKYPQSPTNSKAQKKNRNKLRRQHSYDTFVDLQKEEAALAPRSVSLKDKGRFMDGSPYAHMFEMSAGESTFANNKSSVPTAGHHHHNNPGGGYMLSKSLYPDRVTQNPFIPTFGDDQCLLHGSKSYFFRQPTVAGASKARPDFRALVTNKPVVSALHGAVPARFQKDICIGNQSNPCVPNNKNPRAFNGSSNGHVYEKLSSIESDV
row,SMILES,inhibition at 10 µM [%]
1,"O=C(Cc1cccc2nccn12)Nc1ccc(CC(F)F)cc1 [Example 13, N-(4-(2,2-difluoroethyl)phenyl)-2-(imidazo[1,2-a]pyridin-5-yl)acetamide]",88
2,"O=C(Cc1cccc2nccn12)Nc1ccc2c(c1)CCO2 [Example 67, N-(2,3-dihydro-1-benzofuran-5-yl)-2-(imidazo[1,2-a]pyridin-5-yl)acetamide]",78
3,"O=C(Cc1cccc2nccn12)Nc1ccc(OC2CCC2)cc1 [Example 75, N-(4-(cyclobutyloxy)phenyl)-2-(imidazo[1,2-a]pyridin-5-yl)acetamide]",68
4,"O=C(Cc1cccc2nccn12)Nc1ccc(C2CC2)cc1 [Example 4, N-(4-cyclopropylphenyl)-2-(imidazo[1,2-a]pyridin-5-yl)acetamide]",94
5,"CCOc1ccc(NC(=O)Cc2cccc3nccn23)cc1F [Example 18, N-(4-ethoxy-3-fluorophenyl)-2-(imidazo[1,2-a]pyridin-5-yl)acetamide]",91
6,"CCc1ccc(NC(=O)Cc2cccc3nccn23)cc1 [Example 3, N-(4-ethylphenyl)-2-(imidazo[1,2-a]pyridin-5-yl)acetamide]",94
7,"O=C(Cc1cccc2nccn12)Nc1ccc(F)cc1 [Example 32, N-(4-fluorophenyl)-2-(imidazo[1,2-a]pyridin-5-yl)acetamide]",83
8,"CCc1ccc(NC(=O)Cc2cccc3nccn23)nc1 [Example 95, N-(5-ethylpyridin-2-yl)-2-(imidazo[1,2-a]pyridin-5-yl)acetamide]",76
9,"O=C(Cc1cccc2nccn12)Nc1ccc(OCC(F)(F)F)cc1 [Example 38, 2-(imidazo[1,2-a]pyridin-5-yl)-N-(4-(2,2,2-trifluoroethoxy)phenyl)-acetamide]",82
10,"CC(C)(C)c1ccc(NC(=O)Cc2cccc3nccn23)cc1 [Example 64, N-(4-tert-butylphenyl)-2-(imidazo[1,2-a]pyridin-5-yl)acetamide]",84
11,"O=C(Cc1cccc2nccn12)Nc1ccc(C(F)(F)F)cc1 [Example 1, 2-(imidazo[1,2-a]pyridin-5-yl)-N-(4-(trifluoromethyl)phenyl)acetamide]",91
12,"O=C(Cc1cccc2nccn12)Nc1ccc(Br)cc1 [Example 88, N-(4-bromophenyl)-2-(imidazo[1,2-a]pyridin-5-yl)acetamide]",91
13,"O=C(Cc1cccc2nccn12)Nc1ccc(OC(F)(F)F)c(F)c1 [Example 14, N-(3-fluoro-4-(trifluoromethoxy)phenyl)-2-(imidazo[1,2-a]pyridin-5-yl) acetamide]",92
14,"O=C(Cc1ccc(F)c2nccn12)Nc1ccc(OC(F)(F)F)cc1 [Example 94, 2-(8-fluoroimidazo[1,2-a]pyridin-5-yl)-N-(4-(trifluoromethoxy)-phenyl)acetamide]",85
15,"O=C(Cc1c(F)ccc2nccn12)Nc1ccc(C(F)(F)F)cc1 [Example 73, 2-(6-fluoroimidazo[1,2-a]pyridin-5-yl)-N-(4-(trifluoromethyl)phenyl)-acetamide]",73
16,"CC(C)c1ccc(NC(=O)Cc2cccc3nccn23)cc1 [Example 66, 2-(imidazo[1,2-a]pyridin-5-yl)-N-(4-isopropylphenyl)acetamide]",92
17,"O=C(Cc1cccc2nccn12)Nc1ccc(OC(F)F)cc1 [Example 6, N-(4-(difluoromethoxy)phenyl)-2-(imidazo[1,2-a]pyridin-5-yl)acetamide]",93
18,"CCc1ccc(NC(=O)Cc2cccc3nccn23)cc1F [Example 11, N-(4-ethyl-3-fluorophenyl)-2-(imidazo[1,2-a]pyridin-5-yl)acetamide]",94
19,"O=C(Cc1cccc2nccn12)Nc1cnc(C(F)(F)F)nc1 [Example 47, 2-(imidazo[1,2-a]pyridin-5-yl)-N-(2-(trifluoromethyl)-pyrimidin-5-yl)acetamide]",52
20,"O=C(Cc1cccc2nccn12)Nc1cc(F)c(F)c(F)c1 [Example 9, 2-(imidazo[1,2-a]pyridin-5-yl)-N-(3,4,5-trifluorophenyl)acetamide]",87
21,"O=C(Cc1cccc2nccn12)Nc1ccc(C(F)(F)F)nc1 [Example 44, 2-(imidazo[1,2-a]pyridin-5-yl)-N-(6-(trifluoromethyl)pyridin-3-yl)acetamide]",71
22,"Cc1ccc(NC(=O)Cc2cccc3nccn23)cc1 [Example 35, 2-(imidazo[1,2-a]pyridin-5-yl)-N-(4-methylphenyl)acetamide]",90
23,"O=C(Cc1cccc2nccn12)Nc1ccc(Oc2ccccc2)cc1 [Example 34, 2-(imidazo[1,2-a]pyridin-5-yl)-N-(4-phenoxyphenyl)acetamide]",71
24,"CN(C(=O)Cc1cccc2nccn12)c1ccc(C(F)(F)F)cc1 [Example 51, 2-(imidazo[1,2-a]pyridin-5-yl)-N-methyl-N-(4-(trifluoromethyl)phenyl)-acetamide]",56
25,"O=C(Cc1cccc2nccn12)Nc1ccc(C(F)F)cc1 [Example 69, N-(4-(difluoromethyl)phenyl)-2-(imidazo[1,2-a]pyridin-5-yl)acetamide]",87
26,"COc1ccc2nccn2c1CC(=O)Nc1ccc(OC(F)(F)F)cc1 [Example 80, 2-(6-methoxyimidazo[1,2-a]pyridin-5-yl)-N-(4-(trifluoromethoxy)phenyl)acetamide]",94
27,"COc1ccc2nccn2c1CC(=O)Nc1ccc(C(F)(F)F)cc1 [Example 89, 2-(6-methoxyimidazo[1,2-a]pyridin-5-yl)-N-(4-(trifluoromethyl)phenyl)-acetamide]",92
28,"O=C(Cc1cccc2nccn12)Nc1ccc(OC(F)(F)F)cn1 [Example 92, 2-(imidazo[1,2-a]pyridin-5-yl)-N-(5-(trifluoromethoxy)-pyridin-2-yl)acetamide]",87
29,"Cc1cn2c(CC(=O)Nc3ccc(C(F)(F)F)cc3)cccc2n1 [Example 23, 2-(2-methylimidazo[1,2-a]pyridin-5-yl)-N-(4-(trifluoromethyl)phenyl)-acetamide]",81

# Test system: NMDA receptor
# Assay: not given
# Conditions: continuous intravenous administration; cited from earlier work
row,SMILES,depression symptom accompanying major depression and bipolar disorder
1,CNC1(c2ccccc2Cl)CCCCC1=O (centres unmarked) [ketamine],improves depression symptom accompanying major depression and bipolar disorder rapidly and in a sustained manner

# Biological target: T2, NMDA receptor containing the NR2B subunit (Homo sapiens, UniProt Q05586+Q13224)
# Assay: not given
# Conditions: continuous intravenous administration; cited from earlier work
# T2 sequence (Q13224 27-1484, other chains not shown): as above
row,SMILES,treatment resistant-depression symptom
1,"C[C@@H]([C@@H](O)c1ccc(O)cc1)N1CCC(O)(c2ccccc2)CC1 [CP-101, 606]",significantly improves treatment resistant-depression symptom

# Biological target: NMDA receptor containing the NR2B subunit (Rattus norvegicus, UniProt P35439+Q00960)
# Assay: not given
# Conditions: rodents; cited from earlier work
# Chain of NMDA receptor containing the NR2B subunit (Rattus norvegicus, UniProt P35439+Q00960) (Q00960 27-1482, other chains not shown): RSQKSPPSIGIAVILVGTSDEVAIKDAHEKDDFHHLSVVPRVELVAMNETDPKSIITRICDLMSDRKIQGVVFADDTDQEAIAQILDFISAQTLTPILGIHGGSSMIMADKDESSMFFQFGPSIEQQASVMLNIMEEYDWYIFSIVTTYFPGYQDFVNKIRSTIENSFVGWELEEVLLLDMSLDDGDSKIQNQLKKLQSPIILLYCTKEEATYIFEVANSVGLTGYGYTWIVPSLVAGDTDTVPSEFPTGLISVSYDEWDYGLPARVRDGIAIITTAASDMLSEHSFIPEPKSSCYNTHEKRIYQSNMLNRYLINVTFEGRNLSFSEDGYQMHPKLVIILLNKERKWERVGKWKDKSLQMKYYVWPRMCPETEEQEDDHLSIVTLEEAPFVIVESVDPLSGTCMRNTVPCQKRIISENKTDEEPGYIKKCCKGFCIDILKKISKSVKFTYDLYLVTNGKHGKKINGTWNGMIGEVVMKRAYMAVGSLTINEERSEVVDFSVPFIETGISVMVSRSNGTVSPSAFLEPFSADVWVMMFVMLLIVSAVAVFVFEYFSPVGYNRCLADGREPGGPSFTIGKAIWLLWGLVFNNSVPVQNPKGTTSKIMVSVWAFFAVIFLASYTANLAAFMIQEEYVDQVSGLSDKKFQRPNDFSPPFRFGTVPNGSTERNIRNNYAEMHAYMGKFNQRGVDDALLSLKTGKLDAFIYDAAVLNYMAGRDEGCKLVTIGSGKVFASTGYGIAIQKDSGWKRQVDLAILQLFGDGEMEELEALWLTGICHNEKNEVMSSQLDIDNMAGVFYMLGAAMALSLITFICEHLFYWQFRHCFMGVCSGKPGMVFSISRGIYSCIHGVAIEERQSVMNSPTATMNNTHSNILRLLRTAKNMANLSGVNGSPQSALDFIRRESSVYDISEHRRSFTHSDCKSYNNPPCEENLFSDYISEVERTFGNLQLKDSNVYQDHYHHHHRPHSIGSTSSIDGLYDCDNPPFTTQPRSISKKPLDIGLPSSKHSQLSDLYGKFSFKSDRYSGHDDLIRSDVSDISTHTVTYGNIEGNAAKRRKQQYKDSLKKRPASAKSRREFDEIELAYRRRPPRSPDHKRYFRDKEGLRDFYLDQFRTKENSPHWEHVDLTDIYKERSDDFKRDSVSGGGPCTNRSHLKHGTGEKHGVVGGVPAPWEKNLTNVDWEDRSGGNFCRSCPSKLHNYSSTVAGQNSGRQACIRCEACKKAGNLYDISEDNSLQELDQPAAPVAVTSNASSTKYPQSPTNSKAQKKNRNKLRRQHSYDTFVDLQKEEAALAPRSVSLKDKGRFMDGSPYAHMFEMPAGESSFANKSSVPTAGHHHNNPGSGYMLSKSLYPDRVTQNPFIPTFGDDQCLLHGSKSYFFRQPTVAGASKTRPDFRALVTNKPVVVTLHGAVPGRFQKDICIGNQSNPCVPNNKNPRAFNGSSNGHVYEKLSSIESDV
row,SMILES,number of occurrence and depth of cortical spreading depression
1,C[C@@H](CN1CCC(Cc2ccccc2)CC1)[C@@H](O)c1ccc(O)cc1 [Ro25-6981],suppress the number of occurrence and the depth of cortical spreading depression
2,"C[C@@H]([C@@H](O)c1ccc(O)cc1)N1CCC(O)(c2ccccc2)CC1 [CP-101, 606]",suppress the number of occurrence and the depth of cortical spreading depression

# Biological target: T2, NMDA receptor containing the NR2B subunit
# Assay: not given
# Conditions: in vivo; cited from earlier work
row,SMILES,pain sense threshold
1,CC(C(O)c1ccc(O)cc1)N1CCC(Cc2ccccc2)CC1 (centres unmarked) [Ifenprodil],pain sense threshold increases

# Test system: NMDA receptor
# Assay: not given
# Conditions: in vivo; cited from earlier work
row,SMILES,peripheral symptoms of dementia
1,CC12CC3CC(C)(C1)CC(N)(C3)C2 [memantine],partially improves peripheral symptoms of dementia
